Reference: patent publication US20110104713A1, “PRODUCTS AND PROCESSES FOR MODULATING PEPTIDE-PEPTIDE BINDING DOMAIN INTERACTIONS” (priority 2002, published 2011)
Values belong to the compound of their own block, whether it stands above or below them. Non-standard residues stand in square brackets, D forms with d. Residues, ends and D or L forms follow the SMILES beside them. No end group written: not given here. pT = C[C@@H](OP(=O)(O)O)[C@H](N)C(=O)O; pS = N[C@@H](COP(=O)(O)O)C(=O)O

Experiments:
Type in all cases: binding
[1] = target: T1, Plk-1 PBD (residues 326-603) (Homo sapiens, UniProt P53350); assay: Isothermal titration calorimetry of peptides with Plk-1 PBD; settings: for peptide binding to Plk-1 PBD by ITC (in words): no detectable binding for a Plk1 PBD concentration of at least 150 μM
T1 construct: sample cell containing 15 μM Plk-1 PBD (residues 326-603); GST (N, cleaved yes); made in house; host or cells: E. coli BL21
T1 sequence (P53350 326-603): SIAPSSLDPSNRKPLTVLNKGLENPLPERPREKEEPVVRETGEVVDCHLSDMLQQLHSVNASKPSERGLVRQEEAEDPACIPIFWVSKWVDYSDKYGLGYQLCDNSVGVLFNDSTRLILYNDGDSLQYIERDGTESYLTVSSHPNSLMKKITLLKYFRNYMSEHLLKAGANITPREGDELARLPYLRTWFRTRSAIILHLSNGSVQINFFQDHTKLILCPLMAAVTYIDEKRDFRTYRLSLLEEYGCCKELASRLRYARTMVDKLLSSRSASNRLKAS
Description: For deletion mapping of the PBD, C-terminal fragments of Plk-1 were generated by PCR and cloned into the EcoRI and XhoI sites of pcDNA3.1 (Invitrogen). For production of recombinant PBD as a GST fusion in bacteria, the 326-603 fragment of Plk-1 was ligated into the EcoRI and XhoI sites of pGEX-4T (Pharmacia), transformed into BL21, and induced in late log-phase cells at 37° C. for 3.5 hours in the presence of 0.4 mM IPTG. For measurements of peptide binding affinity by ITC, GST-Plk-1 (326-603) was isolated from bacterial lysates using glutathione agarose, cleaved from GST using thrombin (10 U/mL), and purified by anion exchange chromatography (Q Sepharose HP, Pharmacia).
Peptides were synthesized by solid phase technique with two C-terminal lysines to enhance solubility, purified by reverse phase HPLC following deprotection, and confirmed by MALDI-TOF 9 Matrix-assisted laser desorption/ionisation-time of flight mass spectrometry. Some peptides contained an additional tyrosine residue to facilitate concentration determination by optical absorbance. calorimetry measurements were performed using a VP-ITC microcalorimeter (MicroCal Inc., Studio City, Calif.). Experiments involved 10 μL injections of peptide solutions (150 μM-180 μM) into a sample cell containing 15 μM Plk-1 PBD (residues 326-603) in 50 mM Tris/HCl (pH 8.1), 200 mM NaCl, 2 mM TCEP. Thirty injections were performed with a spacing of 240 s and a reference power of 25 μCal/s. Binding isotherms were plotted and analyzed using Origin Software (MicroCal Inc. Studio City, Calif.).
Peptides were synthesized by solid phase technique with two C-terminal lysines to enhance solubility. Some peptides contained an additional tyrosine residue to facilitate concentration determination by optical absorbance. Isothermal titration calorimetry was performed using a VP-ITC microcalorimeter (MicroCal Inc. Studio City, Calif.) by titration of 15-40 μM solutions of PBD proteins with 30×10 μl injections of […] peptide in a starting volume of 1.4-2.0 ml. Binding isotherms were plotted and analyzed using Origin Software (MicroCal Inc. Studio City, Calif.). Binding of in vitro translated Plk1 PBD (wild type and mutants) to bead-immobilized pTP and TP peptide libraries was performed as described previously (Elia et al., Science 299:1228-1231, 2003). pTP and TP indicate the peptide libraries biotin-Z-Gly-Z-Gly-Gly-Ala-X-X-B-X-pThr-Pro-X-X-X-X-Ala-Lys-Lys-Lys SEQ ID NO: 30 biotin-Z-Gly-Z-Gly-Gly-Ala-X-X-B-X-Thr-Pro-X-X-X-X-Ala-Lys-Lys-Lys SEQ ID NO: 31, respectively, where pThr is phosphothreonine, Z is aminohexanoic acid, X denotes all amino acids except Cys, and B is a biased mixture of the amino acids P, L, I, V, F, M, W.

[2] = target: T2, GST-BRCA1 BRCT domains (residues 1634-1863) (Homo sapiens, UniProt P38398); assay: Isothermal titration calorimetry of peptides with BRCA1 tandem BRCT domains
T2 construct: 15 μM GST-BRCA1 BRCT domains (residues 1634-1863); made in house; host or cells: E. coli DH5a
T2 sequence (P38398 1634-1863): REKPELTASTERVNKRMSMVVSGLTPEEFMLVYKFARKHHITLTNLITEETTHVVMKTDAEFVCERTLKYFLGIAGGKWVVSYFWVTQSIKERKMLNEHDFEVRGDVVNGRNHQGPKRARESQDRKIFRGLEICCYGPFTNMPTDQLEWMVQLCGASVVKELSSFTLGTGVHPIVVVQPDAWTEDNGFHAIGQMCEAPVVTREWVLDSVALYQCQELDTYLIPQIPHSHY
From the text: (§1) For deletion mapping of the PTIP and BRCA1 BRCT phospho-binding region and for expression of MDC 1, 53BP1 and Rad9 (FIG. 17-18), fragments were generated by PCR for in vitro transcription/translation and cloned into a pcDNA3.1 expression vector (Invitrogen, San Diego, Calif.). For production of recombinant GST-PTIP BRCT domains and GSTBRCA1 BRCT domains, residues 550-757 of PTIP and residues 1634-1863 of BRCA1 were ligated into the EcoRI and NotI sites of pGEX-4T1 (Pharmacia, Peapack, N.J.) and subsequently transformed into DH5a E. Coli. Protein induction occurred at 37° C. for 4 hours or at 25° C. for 16 hours in the presence of 0.4 mM IPTG. For peptide filter blot analysis and measurements of peptide binding affinity by ITC, GSTPTIP BRCT domains (residues 550-757) and GST-BRCA1 BRCT domains (residues 1634-1863) were isolated from bacterial lysates using glutathione agarose, eluted with 40 mM glutathione, and dialyzed into 50 mM Tris/HCl (pH 8.1), 300 mM NaCl. The GFP-PTIP constructs FL (residues 1-757), !BRCT (residues 1-550), or (BRCT)2 (residues 550-757) were cloned into the EcoRI and SalI sites of the pEGFP-C2 (BD Biosciences Clontech Franklin Lakes, N.J.) expression vector.
(§2) Peptides were synthesized by solid phase technique with three C-terminal lysines to enhance solubility. The peptides were then purified by reverse phase HPLC following deprotection and confirmed by MALDI-TOF mass spectrometry. Calorimetry measurements were performed using a VP-ITC microcalorimeter (MicroCal Inc., Studio City, Calif.). Experiments involved serial 10 μL injections of peptide solutions (20 μM-150 μM) into a sample cell containing 15 μM GST-PTIP BRCT domains (residues 550-757) or 15 μM GST-BRCA1 BRCT domains (residues 1634-1863) in 50 mM Tris/HCl (pH 8.1), 300 mM NaCl. Twenty injections were performed with 240 second intervals between injections and a reference power of 25 μCal/s. Binding isotherms were plotted and analyzed using ORIGIN Software (MicroCal Inc. Studio City, Calif.).

[3] = target: T3, GST-PTIP BRCT domains (residues 550-757) (Homo sapiens, UniProt Q6ZW49); assay: Isothermal titration calorimetry of peptides with PTIP tandem BRCT domains; settings: for Kd: ITC, PTIP (BRCT)2 domain
T3 construct: 15 μM GST-PTIP BRCT domains (residues 550-757); made in house; host or cells: E. coli DH5a
T3 sequence (Q6ZW49 862-1069): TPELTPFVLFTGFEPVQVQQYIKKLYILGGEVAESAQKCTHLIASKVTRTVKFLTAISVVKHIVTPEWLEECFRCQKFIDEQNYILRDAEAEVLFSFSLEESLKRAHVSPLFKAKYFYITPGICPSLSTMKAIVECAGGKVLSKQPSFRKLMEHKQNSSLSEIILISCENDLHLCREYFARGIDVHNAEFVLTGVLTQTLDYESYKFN
From the text: as §1, §2

[4] = target: T4, GST-Plk-1 PBD (residues 326-603) interaction with mitotic phosphoproteins (Homo sapiens, UniProt P53350); assay: Peptide competition of GST-Plk-1 PBD pull-down of MPM-2 mitotic phosphoproteins from HeLa lysates; settings: 320 μM peptide, 45 minutes at 4° C.; nocodazole-arrested HeLa lysates; listed as 7V
T4 construct: GST-Plk-1 (residues 326-603) was immobilized on glutathionine beads; made in house; host or cells: E. coli BL21
T4 sequence (P53350 326-603): as the sequence (P53350 326-603) above
Description: HeLa cells were arrested in interphase or G2/M by treatment with aphidicolin (5 μg/mL) or nocodazole (50 ng/mL), respectively, for 16 hours. Cells were lysed in 25 mM Tris/HCl (pH 7.5) containing 125 mM NaCl, 0.5% NP-40, 5 mM EDTA, 2 mM DTT, 4 μg/mL pepstatin, 4 μg/mL aprotinin, 4 μg/mL leupeptin, 1 mM Na3VO4, 50 mM NaF, and […] microcystin, and 150 μgs of lysate incubated with 10 μL of glutathione agarose beads containing 2-5 μg of GST-Plk-1 (residues 326-603), GST-Pin1, or GST for 30 minutes at 4° C. Beads were washed four times with lysis buffer. Precipitated proteins were eluted in sample buffer and detected by blotting with monoclonal MPM-2 (Upstate Biotechnology, Inc.) or polyclonal anti-Cdc25C (Santa Cruz Biotechnology, Santa Cruz, Calif.). For peptide competition experiments, GST-Plk-1 (residues 326-603) was immobilized on glutathionine beads and preincubated with 320 μM of PoloBoxtide-optimal, −8T, or −7V for 45 minutes at 4° C. For binding experiments involving mutant cdc25C, HeLa cells were transfected with wild-type and mutated versions of HA-tagged Cdc25C in pECE using Superfect (Qiagen, Valencia, Calif.). Nocodazole (50 ng/mL) was added seventeen hours after transfection and cells incubated for an additional 14 hours to arrest them in G2/M. Point mutations of Cdc25C were constructed using the QuickChange site-directed mutagenesis system (Stratagene) and verified by DNA sequencing.

- peptide binding to Plk-1 PBD by ITC (in words) [1]: abolish Plk1 PBD/peptide binding
Compound: PoloBoxtide-7G: mutated version of the optimal peptide, Gly at pT-1 (SEQ ID NO:69) (MAGPMQG[pT]PLNGAYKK)

- peptide binding to Plk-1 PBD by ITC (in words) [1]: abolish Plk1 PBD/peptide binding
Compound: PoloBoxtide-7A: mutated version of the optimal peptide, Ala at pT-1 (SEQ ID NO:68) (MAGPMQA[pT]PLNGAYKK)

- peptide binding to Plk-1 PBD by ITC (in words) [1]: abolish Plk1 PBD/peptide binding
Compound: PoloBoxtide-7T: mutated version of the optimal peptide, Thr at pT-1 (SEQ ID NO:71) (MAGPMQT[pT]PLNGAYKK)

- Kd ([2]; ITC, BRCT domains of BRCA1, text, read-out: dissociation constant): 400 nM
- Kd [3]: 280 nM
Compound: CC[C@H](C)[C@H](NC(=O)[C@H](CC(=O)O)NC(=O)[C@H](Cc1ccc(O)cc1)NC(=O)[C@H](C)NC(=O)[C@H](C)NC(=O)CN)C(=O)N[C@@H](COP(=O)(O)O)C(=O)N[C@@H](CCC(N)=O)C(=O)N[C@H](C(=O)N[C@@H](Cc1ccccc1)C(=O)N1CCC[C@H]1C(=O)N[C@@H](Cc1ccccc1)C(=O)N[C@@H](C)C(=O)N[C@@H](CCCCN)C(=O)N[C@@H](CCCCN)C(=O)N[C@@H](CCCCN)C(=O)O)C(C)C [BRCTtide-7pS] (H-GAAYDI[pS]QVFPFAKKK-OH; N-terminus and C-terminus assumed)

- Kd (N.D.B.) ([2]; BRCA1, N.D.B = no detectable binding by ITC, tandem BRCT domain concentration of at least 150 μM): N.D.B.
- Kd (N.D.B.) ([3]; PTIP, N.D.B = no detectable binding by ITC, tandem BRCT domain concentration of at least 150 μM): N.D.B.
Compound: GAAYDISQVFPFAKKK [BRCTtide-7S]

- peptide binding to Plk-1 PBD by ITC (in words) [1]: abolish Plk1 PBD/peptide binding
Compound: PoloBoxtide-7C: mutated version of the optimal peptide, Cys at pT-1 (SEQ ID NO:70) (MAGPMQC[pT]PLNGAYKK)

- Kd [3]: 14300 nM
Compound: CC[C@H](C)[C@H](NC(=O)[C@H](CC(=O)O)NC(=O)[C@H](Cc1ccc(O)cc1)NC(=O)[C@H](C)NC(=O)[C@H](C)NC(=O)CN)C(=O)N[C@H](C(=O)N[C@@H](CCC(N)=O)C(=O)N[C@H](C(=O)N[C@@H](Cc1ccccc1)C(=O)N1CCC[C@H]1C(=O)N[C@@H](Cc1ccccc1)C(=O)N[C@@H](C)C(=O)N[C@@H](CCCCN)C(=O)N[C@@H](CCCCN)C(=O)N[C@@H](CCCCN)C(=O)O)C(C)C)[C@@H](C)OP(=O)(O)O [BRCTtide-7pT] (H-GAAYDI[pT]QVFPFAKKK-OH; N-terminus and C-terminus assumed)

- effect of peptide pre-incubation on GST-Plk-1 PBD binding of MPM-2 epitopes [4]: had no effect
Compound: PoloBoxtide-7V: phosphopeptide whose serine at pThr-1 was mutated to valine (SEQ ID NO:67) (MAGPMQV[pT]PLNGAKK)

Compound: CSCC[C@H](NC(=O)[C@@H]1CCCN1C(=O)CNC(=O)[C@H](C)NC(=O)[C@@H](N)CCSC)C(=O)N[C@@H](CCC(N)=O)C(=O)N[C@@H](CO)C(=O)N[C@H](C(=O)N1CCC[C@H]1C(=O)N[C@@H](CC(C)C)C(=O)N[C@@H](CC(N)=O)C(=O)NCC(=O)N[C@@H](C)C(=O)N[C@@H](CCCCN)C(=O)N[C@@H](CCCCN)C(=O)O)[C@@H](C)OP(=O)(O)O [PoloBoxtide-optimal, MAGPMQ-S-pT-P-LNGAKK] (H-MAGPMQS[pT]PLNGAKK-OH)
- Kd [1]: 280 nM
